This note sets out measurements from article PMC8470881, “Membrane Interactions of Latarcins: Antimicrobial Peptides from Spider Venom” (International Journal of Molecular Sciences, 2021).

The test system of this test is Bacillus subtilis subsp. spizizenii (DSM 347), Staphylococcus xylosus (DSM 20267), Escherichia coli (DSM 1116), Acinetobacter sp. (DSM 586). Particulars: for MIC: irrespective of the bacterial strain (all four strains), Müller-Hinton medium, 20 h at 37 °C, maximum tested 256 µg/mL; for MIC (relative antimicrobial activity): relative activity over two Gram-positive and two Gram-negative strains. The method, then: The effect of latarcins against four types of bacteria was determined using a minimum inhibitory concentration (MIC) assay on two Gram-positive strains (Bacillus subtilis subsp. spizizenii and Staphylococcus xylosus) and two Gram-negative strains (Escherichia coli and Acinetobacter sp.). Although the antimicrobial activity of latarcins is well documented, these experiments served to ensure that all studies were performed on molecules that show the expected antimicrobial activity.
The minimum inhibitory concentration (MIC) was determined as previously reported. For each latarcin, MIC was determined against two Gram-positive strains, namely Bacillus subtilis subsp. spizizenii (DSM 347) and Staphylococcus xylosus (DSM 20267), and two Gram-negative strains: Escherichia coli (DSM 1116) and Acinetobacter sp. (DSM 586). Bacterial cultures were grown in Müller-Hinton medium (MHM) as described previously, and peptides were dissolved in sterile water containing 10% DMSO. The stock solution of peptides with 1024 µg/mL was prepared such that serial dilutions of peptides (from 256 µg/mL to 2 µg/mL) in MHM were prepared in 96-well plates with the penultimate column without peptide to act as positive control (no peptide) and the final column as negative control (no bacteria). Bacterial stock suspension was made with an OD of 0.2 units at 550 nm. This stock solution was further diluted (1:1000 for Gram-negative bacteria and 1:100 for Gram-positive bacteria), and subsequently, 50 µL of the resulting bacterial suspension was added to the wells except the final well to give a final concentration of 10^6 colony-forming units per mL. Afterwards, the 96-well plates were incubated at 37 °C for 20 h, and cellular respiration was detected by adding 20 µL of resazurin solution (200 µg/mL) for an additional 2 h at the same temperature.

Bounds are passed on as bounds.

As usually defined, the MIC is the lowest concentration found to suppress growth. Low readings indicate greater potency, high ones weaker potency.

With H-GLKDKFKSMGEKLKQYIQTWKAKF-NH2 [Ltc4a], the MIC was 8 to 32 µg/mL and the “MIC (relative antimicrobial activity)” value is listed as “++”.
Take “H-GFFGKMKEYFKKFGASFKRRFANLKKRL-NH2 [Ltc5]”: the MIC result is “below 4 µg/mL” and the “MIC (relative antimicrobial activity)” value is “+++”.
Consider H-SWKSMAKKLKEYMEKLKQRA-NH2 [Ltc3a], for which the MIC is 8 to 32 µg/mL and the “MIC (relative antimicrobial activity)” value was “++”.
With “G E TF D K L K E K L K TFYQ K LV E K A ED L K G D L K A K LS-acid [Ltc7]”, the MIC was over 256 µg/mL and the “MIC (relative antimicrobial activity)” value was “−”.
Turning to “H-QAFQTFKPDWNKIRYDAMKMQTSLGQMKKRFNL-OH [Ltc6a]”, the “MIC (relative antimicrobial activity)” value is “+”.
